Patent US20230192772A1, “ANTIMICROBIAL PEPTIDES AND USES THEREOF” (SORBONNE UNIVERSITE, priority 2016, published 2023)
≈ marks a conversion by molar mass, not a printed value. Square brackets hold non-standard residues; d marks the D form. Ends that are not written are not given here. Peptide text beside a SMILES is read from it.

What was measured:
Format in all cases: cell-based
[1] = test system: Escherichia coli ATCC 8739; assay: MIC/MBC (Example 10, MH medium); conditions: Table 5; E. coli ATCC 8739
Procedure: (§1) The MIC is determined using a growth inhibition test in liquid medium. The MIC is defined as being the lowest peptide concentration capable of inhibiting the bacterial strain tested, after incubation for 18 h at 37° C. The test was carried out in a sterile microtitration plate containing 96 wells. A series of increasing concentrations of each peptide (0.2 to 100 µM) was prepared beforehand in sterile MilliQ water. In each well, 10 µL of peptide was incubated with 90 µL of bacterial suspension (10^7 cfu/mL) in yeast extract-free LB medium. The microplate was incubated at 37° C. for 18 h. The bacterial growth was evaluated by measuring the OD at 620 nm using a plate reader.
(§2) The negative growth inhibition control was obtained by replacing the solution containing the peptide by sterile MilliQ water. The positive control suitable for completely inhibiting the growth of the bacterial strains was obtained by replacing the solution containing the peptide by 10 µL of formaldehyde.
(§3) The results are interpreted by calculating the percentage of bacterial growth in each well according to the formula:
(§4) %Growth = (OD well - OD of T0)/(OD of T100-OD of T0)*100 where
(§5) • OD of T100 = OD of growth control (bacterial suspension free from sample under test, 100% growth), • OD of T0 = OD of sterility control (culture medium + bacterium + 10 µL formaldehyde, 0% growth) and • OD well = OD of well for which it is sought to calculate the growth percentage (bacterial suspension + peptide under test).
(§6) The MBC is defined as being the minimum peptide concentration leaving no surviving bacteria of the inoculum after incubation at 37° C. for 24 hours. This test consists of smearing the contents of the well wherein the peptide has inhibited bacterial growth on a Petri dish (LB agar), followed by incubation for 24 h at 37° C.
(§7) A 10 mL preculture in Muller-Hinton (MH) medium is prepared by inoculating a colony of the bacterial strain of interest. The preculture is incubated at 37° C. under stirring overnight. The culture is subcultured to 1:100 under the same conditions. The culture concentration is evaluated by measuring the turbidity at 600 nm (OD600 nm 1.0 = 5 × 10^8 CFU/mL for E. coli (Gram-negative bacteria) and 1.5 × 10^8 CFU/mL for S. aureus (Gram-positive bacteria). Once the exponential growth phase (OD600 nm = 0.3 - 0.7) has been achieved, the cultures are diluted in MH medium so as to obtain 10^6 CFU/mL (final inoculum concentration).
(§8) The MIC and the MBC were determined as per the protocol described in part 2.1 of Example 2.

[2] = test system: Staphylococcus aureus ATCC 6538; assay: MIC/MBC (Example 10, MH medium); conditions: Table 5; S. aureus ATCC 6538
Procedure: as §1, §2, §3, §4, §5, §6, §7, §8

[3] = test system: Enterococcus faecalis CIP 103015; assay: MIC/MBC (Example 10, MH medium); conditions: Table 5; E. faecalis CIP 103015
Procedure: as §1, §2, §3, §4, §5, §6, §7, §8

[4] = test system: Pseudomonas aeruginosa ATCC 9027; assay: MIC/MBC (Example 10, MH medium); conditions: Table 5; P. aeruginosa ATCC 9027
Procedure: as §1, §2, §3, §4, §5, §6, §7, §8

[5] = test system: immune cells obtained from mouse bone marrow; assay: Cytotoxic effects on immune cells obtained from mouse bone marrow; conditions: 12.5 µM; 2 hours
Procedure: (§9) The mouse immune cells are obtained from C57BL/6 or Balb/c mouse bone marrow. The peptides are incubated at 37° C., 5% CO2 in the presence of 500,000 immune cells in RPMI medium at varied concentrations for 2 hours. Peptide-free cells are used as the negative control and cells in the presence of DMSO (30%) are used as the positive control. After incubation, the cells are washed then labelled with Trypan blue so as to measure the cell viability by microscope counting. The LC50 is then calculated as being the concentration of DA2N, K12A and DANa peptides inducing the death of 50% of the immune cells.

[6] = as above; conditions: mouse immune cells originating from bone marrow, read-out: LC50
Procedure: as §9

Row | Compound | MBC [1] [µM] | MIC [1] [µM] | MBC [2] [µM] | MIC [2] [µM] | MBC [3] [µM] | MIC [3] [µM] | MBC [4] [µM] | MIC [4] [µM] | death of immune cells [5] | CC50 at 2 hours [6] [µM]
1 | CSCC[C@@H](NC(=O)[C@@H](CC(N)=O)NC(=O)[C@H](NC(=O)[C@H](NC(=O)[C@@H](C)NC(=O)[C@@H](CC(N)=O)NC(=O)[C@@H](CC(C)C)NC(=O)[C@H](NC(=O)[C@@H](C)NC(=O)[C@@H](CCCCN)NC(=O)CNC(=O)[C@@H](C)NC(=O)[C@H](NC(=O)[C@@H](CCCCN)NC(=O)CNC(=O)[C@H](NC(=O)[C@@H](CCCCN)NC(=O)[C@@H](CCCCN)NC(=O)[C@@H](CC(C)C)NC(=O)[C@@H](CC(C)C)NC(=O)[C@H](NC(=O)[C@@H](CCCCN)NC(=O)[C@@H](Cc1c[nH]c2ccccc12)NC(=O)[C@@H](CC(C)C)NC(=O)[C@@H](C)N)[C@H](C)O)C(C)C)C(C)C)C(C)C)C(C)C)[C@H](C)O)C(=O)N[C@H](C)C(=O)N[C@H](CC(N)=O)C(=O)N[C@H](CCC(N)=O)C(=O)N[C@H](CC(N)=O)C(=O)O [DA2N (D), dAdLdWdKdTdLdLdKddKdVdGdKdVdAdGdKdAdVdLdNdAdVdTdNdMdAdNdQdN] (H-[dA][dL][dW][dK][dT][dL][dL][dK][dK][dV]G[dK][dV][dA]G[dK][dA][dV][dL][dN][dA][dV][dT][dN][dM][dA][dN][dQ][dN]-OH; N-terminus and C-terminus assumed) | 0.8 (≈ 2.47 µg/mL) | 0.4 (≈ 1.23 µg/mL) | 0.8 (≈ 2.47 µg/mL) | 0.8 (≈ 2.47 µg/mL) | 3.1 (≈ 9.55 µg/mL) | 3.1 (≈ 9.55 µg/mL) | 0.8 (≈ 2.47 µg/mL) | 0.8 (≈ 2.47 µg/mL) | induce the death of immune cells at a concentration of 12.5 µM with a comparable efficacy to DA2N | 
2 | CSCC[C@@H](NC(=O)[C@@H](CC(N)=O)NC(=O)[C@H](NC(=O)[C@H](NC(=O)[C@@H](C)NC(=O)[C@@H](CC(N)=O)NC(=O)[C@@H](CC(C)C)NC(=O)[C@H](NC(=O)[C@@H](C)NC(=O)[C@@H](CCCCN)NC(=O)CNC(=O)[C@@H](C)NC(=O)[C@H](NC(=O)[C@@H](CCCCN)NC(=O)CNC(=O)[C@H](NC(=O)[C@@H](CCCCN)NC(=O)[C@@H](CCCCN)NC(=O)[C@@H](CC(C)C)NC(=O)[C@@H](CC(C)C)NC(=O)[C@H](NC(=O)[C@@H](CCCCN)NC(=O)[C@@H](Cc1c[nH]c2ccccc12)NC(=O)[C@@H](CC(C)C)NC(=O)[C@@H](C)N)[C@H](C)O)C(C)C)C(C)C)C(C)C)C(C)C)[C@H](C)O)C(=O)N[C@H](C)C(=O)N[C@H](CC(N)=O)C(=O)N[C@H](CCC(N)=O)C(=O)N[C@H](CC(N)=O)C(=O)N[C@H](CCC(=O)O)C(=O)N[C@H](CCC(N)=O)C(=O)O [DA2NEQ (D), dAdLdWdKdTdLdLdKdKdVdGdKdVdAdGdKdAdVdLdNdAdVdTdNdMdAdNdQdNdEdQ] (H-[dA][dL][dW][dK][dT][dL][dL][dK][dK][dV]G[dK][dV][dA]G[dK][dA][dV][dL][dN][dA][dV][dT][dN][dM][dA][dN][dQ][dN][dE][dQ]-OH; N-terminus and C-terminus assumed) | 0.8 (≈ 2.67 µg/mL) | 0.8 (≈ 2.67 µg/mL) | 1.6 (≈ 5.34 µg/mL) | 1.6 (≈ 5.34 µg/mL) | 12.5 (≈ 41.7 µg/mL) | 12.5 (≈ 41.7 µg/mL) | 3.1 (≈ 10.4 µg/mL) | 1.6 (≈ 5.34 µg/mL) |  | 
3 | ALWDTLLKKVGKVAGKAVLNAVTNMANQN [K4D] | 12.5 | 12.5 | 12.5 | 12.5 | 50 | 50 | 25 | 25 |  | 
4 | ALWKTLAKKVGKVAGKAVLNAVTNMANQN [L7A] | 0.8 | 0.8 | 3.1 | 3.1 | 6.3 | 6.3 | 1.6 | 1.6 |  | 
5 | ALWKTLLKKVGAVAGKAVLNAVTNMANQN [K12A] | 1.6 | 1.6 | 6.3 | 3.1 | 12.5 | 12.5 | 6.3 | 6.3 |  | 6.5
6 | ALWKTLLKKVGKAAGKAVLNAVTNMANQN [V13A] | 1.6 | 1.6 | 12.5 | 6.3 | 50 | 50 | 6.3 | 6.3 |  | 
7 | ALWKTLLKKVGKVAGKAVLNAVTNAANQN [M25A] | 0.8 | 0.8 | 3.1 | 3.1 | 12.5 | 12.5 | 3.1 | 3.1 |  | 
8 | ALWKTLLKKVGKVAGKAVLNAVTNMANQN-NH2 [DA2Na] | 0.8 | 0.8 | 1.6 | 0.8 | 3.1 | 3.1 | 1.6 | 1.6 |  | 3.75
9 | ALWKTLLKKVGKVAGKAVLNAVTNMANQNE-OH [DA2NE] | 1.6 | 0.8 | 12.5 | 3.1 | 50 | 12.5 | 3.1 | 3.1 | induce the death of immune cells at a concentration of 12.5 µM with a comparable efficacy to DA2N | 
10 | ALWKTLLKKVGKVDGKAVLNAVTNMANQN [A14D] | 6.3 | 6.3 | >50 | >50 | >50 | >50 | >50 | 50 |  | 
11 | ALWKTLLKKVGKVKGKAVLNAVTNMANQN [A14K] | 1.6 | 1.6 | 50 | 25 | >50 | >50 | 12.5 | 12.5 |  | 
12 | ALWKTLLKKVGPVAGKAVLNAVTNMANQN [K12P] | 6.3 | 6.3 | 6.3 | 6.3 | >50 | >50 | 12.5 | 12.5 |  | 
13 | Gramicidin [reference compound] | >100 | >100 | >50 | >50 | 0.8 | 0.8 | >100 | >100 |  | 
